This note sets out measurements from US7772183B2 (Bristol-Myers Squibb Company, priority 2005, dated 2010).

pEC50, pIC50: −log10 of the molar value.

In one series the target is T1, human liver cathepsin B (Homo sapiens, UniProt P07858).
T1 construct: purchased Sigma or EMDbiosciences; host or cells: human liver (as named)
Put plainly: Specificity assay, cathepsin B. The class given is biochemical. The following applies: read-out: Cathepsin B activity in the specificity assays. As to the method: (§1) The specificities of compounds of the present disclosure were determined against a variety of serine proteases: human neutrophil elastase (HNE), porcine pancreatic elastase (PPE) and human pancreatic chymotrypsin and one cysteine protease: human liver cathepsin B. In all cases, a 96-well plate format protocol using colorimetric p-nitroaniline (pNA) substrate or fluorometric Amino-Methyl-Coumarin (AMC) substrate, specific for each enzyme was used as described previously (PCT Patent Application No. WO 00/09543) with some modifications. All enzymes were purchased from Sigma or EMDbiosciences while the substrates were from Bachem.
(§2) Each pNA assay included a 2 h enzyme-inhibitor pre-incubation at room temperature followed by addition of substrate and hydrolysis to ˜15% conversion as measured on a Spectramax Pro microplate reader. The cathepsin B assay was initiated by adding substrate to a 10 min enzyme-inhibitor pre-incubation at room temperature, and the assay plate measured immediately using the Cytofluor Series 4000. Compound concentrations varied from 100 to 0.4 μM depending on their potency.
(§3) The final conditions for each assay were as follows: […]
(§4) The percentage of inhibition was calculated using the formula: [1−((UVinh−UVblank)/(UVctl−UVblank))]×100 […]

The test system of series [1] is HCV replicon (Renilla luciferase reporter) in HUH-7 cells. As to the kind of experiment: HCV replicon luciferase reporter assay. To be noted: Huh-7, 96 h, 4 days. The class given is cell-based, Hepatitis C virus (strain 1b). An excerpt:
An HCV replicon whole cell system was established as described by Lohmann V, Komer F, Koch J, Herian U, Theilmann L, Bartenschlager R., Science 285(5424):110-3 (1999). This system enabled us to evaluate the effects of our HCV Protease compounds on HCV RNA replication. Briefly, using the HCV strain 1b sequence described in the Lohmann paper (Assession number: AJ238799), an HCV cDNA was synthesized by Operon Technologies, Inc. (Alameda, Calif.), and the full-length replicon was then assembled in plasmid pGem9zf(+) (Promega, Madison, Wis.) using standard molecular biology techniques. The replicon consists of (i) the HCV 5′ UTR fused to the first 12 amino acids of the capsid protein, (ii) the neomycin phosphotransferase gene (neo), (iii) the IRES from encephalomyocarditis virus (EMCV), and (iv) HCV NS3 to NS5B genes and the HCV 3′ UTR. […]
As a secondary assay, EC50 determinations from the replicon FRET assay were confirmed in a replicon luciferase reporter assay. […] Following 4 days in a 37° C./5% CO2 incubator, cells were analyzed for Renilla Luciferase activity using the Promega Dual-Glo Luciferase Assay System. […] Plates were read on a Packard TopCount NXT using a luminescence program.
The percentage inhibition was calculated using the formula below: […]
The values were graphed and analyzed using XLfit to obtain the EC50 value.
A general note: Replicon systems follow genome replication, usually without infectious particles.

Series [2] deals with T2, human neutrophil elastase (HNE) (Homo sapiens, UniProt P08246).
T2 construct: purchased Sigma or EMDbiosciences
T2 sequence (P08246 30-267): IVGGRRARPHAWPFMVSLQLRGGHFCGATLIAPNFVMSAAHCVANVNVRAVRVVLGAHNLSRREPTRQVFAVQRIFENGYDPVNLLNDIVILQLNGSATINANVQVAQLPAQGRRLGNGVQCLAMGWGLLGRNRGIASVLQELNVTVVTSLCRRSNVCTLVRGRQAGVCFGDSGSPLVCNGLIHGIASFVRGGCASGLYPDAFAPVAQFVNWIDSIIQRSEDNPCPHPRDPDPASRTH
As to the kind of experiment: Specificity assay, neutrophil elastase. To be noted: read-out: HLE activity in the specificity assays. The format is biochemical. As to the method:
as §1, §2, §3, §4

In general, melting point refers to the temperature, or range, at which the solid turns liquid. Usually pEC50 stands for −log10 of the EC50, conventionally taken in molar units. A high value points to a small EC50. Turning to `CC(C)(C)OC(=O)N[C@H]1CCCCC/C=C\[C@@H]2C[C@@]2(C(=O)NS(=O)(=O)C2CC2)NC(=O)[C@@H]2C[C@@H](OC(=O)c3ccc(C#N)cc3)CN2C1=O` [Compound 26, 18-(4-cyanobenzoyloxy)-14-tert-butoxycarbonylamino-4-cyclopropylsulfonylaminocarbonyl-2,15-dioxo-3,16-diazatricyclo-[14.3.0.0^4,6]-nonadec-7-ene], the melting point was in the range of 164 to 166 °C. For the same compound, the pIC50 on human liver cathepsin B is ≤ 4.00. In addition, in series [1], the pEC50 was 8.37. Also, the pIC50 in series [2] is < 4.00.
